Where “and” joins values, the source holds several entries; their conditions need not be identical. Identical values can stand only once.
Assays:
Type in all cases: ADME, organism-based
Homo sapiens [1] = test: (§1) Pharmacokinetic parameters for Levofloxacin evaluated after oral or IV single dose administration of 250, 500 or 750 mg Levofloxacin to male and/or female subjects of variable age ranges and health status.; design: dose 250 mg, dose 500 mg, dose 750 mg, route oral, route iv; conditions: in vivo
[2] = as §1; design: dose 250 mg, dose 500 mg, dose 750 mg, route oral, route iv; conditions: human, in vivo
Homo sapiens [3] = test: (§2) Pharmacokinetic parameters for Levofloxacin evaluated after multiple oral or IV administration of 250, 500 or 750 mg Levofloxacin, to male and/or female subjects of variable age ranges and health status.; design: dose 500 mg, dose 750 mg, dose 250 mg, route iv, route oral; conditions: in vivo
[4] = as §2; design: dose 500 mg, dose 750 mg, dose 250 mg, route iv, route oral; conditions: human, in vivo; for CL renal: read-out: CL_renal

With `C[C@H]1COc2c(N3CCN(C)CC3)c(F)cc3c(=O)c(C(=O)O)cn1c23.C[C@H]1COc2c(N3CCN(C)CC3)c(F)cc3c(=O)c(C(=O)O)cn1c23.O` [LEVOFLOXACIN] as the compound, how does the CL/F (Homo sapiens [1]; iv) read?
Its CL/F is 175 mL/min and 126 mL/min.

What about the Vd/F (Homo sapiens [1]; iv) of the same compound?
Its Vd/F is 90 L and 75 L.

What about the t1/2 (Homo sapiens [1]; iv) of the same compound?
Its t1/2 is 7.5 h.

What about the Vd/F (Homo sapiens [1]; po) of the same compound?
The Vd/F was 83 L and 89 L and 62 L and 67 L.

And the Tmax ([2]; iv)?
Its Tmax is 1 h.

What about the half-life ([2]; iv) of the same compound?
Its half-life is 384 min.

What about the CL renal ([2]; iv, read-out: CL_renal) of the same compound?
The CL renal was 112 mL/min.

What about the Vd/F ([2]; po) of the same compound?
Its Vd/F is 112 L.

And the AUC (Homo sapiens [3])?
Its AUC is 72.5 mcg.hr/mL [middle of 5 runs].

And the Cmax (Homo sapiens [3])?
The Cmax was 8.6 mcg/mL [middle of 5 runs].

And the CL/F (Homo sapiens [3]; iv)?
The CL/F was 154 mL/min and 126 mL/min and 158 mL/min.

And the Vd/F (Homo sapiens [3]; iv)?
The Vd/F was 111 L and 80 L and 91 L.

What about the t1/2 (Homo sapiens [3]; iv) of the same compound?
The t1/2 was 7 h.

And the CL/F (Homo sapiens [3]; po)?
The CL/F was 143 mL/min.

And the Vd/F (Homo sapiens [3]; po)?
Its Vd/F is 100 L.

And the half-life ([4]; iv)?
Its half-life is 474 min.

What about the CL renal ([4]; iv) of the same compound?
Its CL renal is 99 mL/min.

What about the CL/F ([4]; po) of the same compound?
The CL/F was 175 mL/min.

What about the Tmax ([4]; po) of the same compound?
Its Tmax is 1.4 h.

And the Vd/F ([4]; po)?
The Vd/F was 102 L.

And the half-life ([4]; po)?
The half-life was 528 min.

And the CL renal ([4]; po)?
The CL renal was 116 mL/min.
